Measurements published in US9394338B2, “Glutathione analogs and uses thereof” (REGENTS OF THE UNIVERSITY OF MINNESOTA, priority 2011, dated 2016).

Columns and labels:
SH-SY-5Y cells = assay: cells; assay type: cell-based; conditions: for % Inhibition of Cell Growth with Aβ1-42 / % Inhibition of Cell Growth without Aβ1-42: compound 1 mM 24 h; for % Inhibition of Cell Growth with Aβ1-42: then 20 μM Aβ1-42 24 h
Protocol: (§1) Cytotoxicity Studies: Protection against β-amyloid 1-42 cytotoxicity in SH-SY-5Y cells was measured by standard MTT assays. SH-SY-5Y cells were seeded in 96-well plates at the density of 30,000 cells/well. After overnight incubation, the cells were exposed to GSH or Ψ-GSH at a concentration of 1 mM for 24 h at 37° C. After 24 h of incubation, the drug-containing medium was replaced with media containing 20 μM β-amyloid 1-42 peptide and the incubation was allowed to continue for additional 24 hours after the addition of the drugs. At the end of the incubation, 20 μL of MTT stock solution (5 mg/mL) was added to each well and incubated for 3 h at 37° C. The MTT reaction medium was discarded and the purple-blue MTT formazan crystals were dissolved by the addition of 100 μL of 0.1 N HCl in isopropanol. The optical density (OD), a reflection mitochondrial function of the viable cells, was read directly with a microplate reader (BioTek SynergyHT, VT, USA) at 580 nm and a reference wavelength of 680 nm. Concentration response graphs were generated for each drug using GraphPad Prism software (GraphPad Software, Inc., San Diego, Calif., USA). Results are expressed as mean percent inhibition of β-amyloid toxicity with the standard error of the mean. In another set of experiments, cells were preincubated with a glyoxalase I inhibitor, S-(p-bromobenzylglutathione) (1 mM) for 24 hours before addition of βamyloid1-42 peptide (20 μM).
as §1, with “Protection” for “Cytotoxicity Studies: Protection”, “against β-amyloid^1-42” for “against β-amyloid 1-42”, “cells/well. […]” for “cells/well. After overnight incubation, the cells were exposed to GSH or Ψ-GSH at a concentration of 1 mM for 24 h at 37° C.”, “μM β-amyloid^1-42” for “μM β-amyloid 1-42”, “20 μl,” for “20 μL”, “mean.” for “mean. In another set of experiments, cells were preincubated with a glyoxalase I inhibitor, S-(p-bromobenzylglutathione) (1 mM) for 24 hours before addition of βamyloid1-42 peptide (20 μM).”

yeast glyoxalase I = biological target: T1, yeast glyoxalase I (Saccharomyces cerevisiae, UniProt P50107); assay: Glyoxalase I enzyme kinetics assay; assay type: biochemical; conditions: yeast Glx-I, MG, 30° C., phosphate buffer pH 6.6
T1 construct: purchased Sigma
T1 sequence (P50107 1-326): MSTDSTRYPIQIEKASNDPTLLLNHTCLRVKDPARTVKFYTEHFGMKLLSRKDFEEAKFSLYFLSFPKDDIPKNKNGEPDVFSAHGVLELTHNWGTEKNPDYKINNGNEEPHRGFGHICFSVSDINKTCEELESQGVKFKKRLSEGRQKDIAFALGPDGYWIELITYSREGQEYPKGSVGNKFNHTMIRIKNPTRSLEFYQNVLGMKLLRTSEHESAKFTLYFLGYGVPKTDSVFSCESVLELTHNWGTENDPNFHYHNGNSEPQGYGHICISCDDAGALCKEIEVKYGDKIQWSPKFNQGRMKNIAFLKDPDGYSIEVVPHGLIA
Protocol: Glyoxalase I Enzyme Kinetics Assay. The glutathione analog, Ψ-GSH and asparthione were examined for their ability to act as substrates for the yeast glyoxalase I mediated […] of MG. The commercial 40% methylglyoxal solution was distilled to remove polymerization products. Enzyme assays were performed (30° C., 0.05 M phosphate buffer (pH 6.6)) using a thermostated Beckman DU® 7400 spectrophotometer. Fresh solutions of GSH, Ψ-GSH and asparthione were prepared on the day of the assays with distilled, deionized water. In each assay, the cell contained a total volume of 3.0 mL which was no more than 6.0 mM with respect to methylglyoxal and 1.3 mM with respect to GSH or its analogs. […] Data were analyzed utilizing an Enzyme kinetics module of Sigmaplot 9.0 from Systat Software Inc.

Swiss Webster Mice = assay: ACP (acetaminophen) overdose rescue and effects on normal liver; assay type: in vivo; conditions: 370 mg/kg ACP + NAC 7.35 mmol/kg
Protocol: 36-Male Swiss Webster Mice (HSD) were fasted over-night and then brought to the lab at 8:00 am the following day and weighed. Food was kept out of the cages until after the final drug injection. Mice were divided into treatment groups as below in Table 2.
Thirty minutes post overdose with 370 mg/kg ACP, the following were evaluated for the groups in Table 2:
N-acetylcysteine (NAC) at 7.35 mmol/kg;
Ψ-GSH at three different doses, 3.67, 2.45 and 1.22 mmol/kg; and
examine effects of Ψ-GSH on normal liver at rescue doses.

Row | Compound | % Inhibition of Cell Growth with Aβ1-42 (SH-SY-5Y cells; SH-SY-5Y) [%] | % Inhibition of Cell Growth without Aβ1-42 (SH-SY-5Y cells; SH-SY-5Y) [%] | other results
1 | Boc-γ-Gla(OtBu)-Cys-Gly-OtBu [Compound VI] | 18 | 2 | 
2 | N[C@@H](CC(=O)N[C@@H](CS)C(=O)NCC(=O)O)C(=O)O [asparthione] |  |  | slope for initial velocity vs. substrate concentration (yeast glyoxalase I): 0.0132±0.0136
3 | Boc-γ-Gla[-Cys(StBu)-Gly-OtBu]-OtBu [Compound 7] | 41 | 0 | 
4 | [γ-Gla-Cys-Gly-OH]2 [Compound XI] | 24 | 1 | 
5 | HCl•γ-Gla[Cys-Gly-OiPr]-OiPr [Compound IX] | 31 | 0 | 
6 | N[C@@H](CCC(=O)N[C@@H](CSCc1ccc(Br)cc1)C(=O)NCC(=O)O)C(=O)O [GSBB, S-p-bromobenzylglutathione, reference compound] |  |  | cell death (SH-SY-5Y cells; 1 mM compound alone, SH-SY-5Y): 10%; viability at 1000 µM (SH-SY-5Y cells; Homo sapiens, SH-SY5Y, Aβ in combination with 1 mM GSBB, read-out: Percentage cell viability): 23.6%
7 | CC(=O)N[C@@H](CS)C(=O)O [NAC, N-acetylcysteine, reference compound] |  |  | death of animals in the group (Swiss Webster Mice): 50%
8 | γ-Glo-Cys-Gly-OH [II] | 56 | 1 | 
9 | Boc-γ-Gla-Cys-Gly-OH [Compound V] | 10 | 1 | 
10 | HCl•γ-Gla[-Cys-Gly-OtBu]-OtBu [Compound VIII] | 50 | 1 | 
11 | N-acetyl-γ-Gla-Cys-Gly-OH [IV] | 3 | 0 | 
12 | HCl•γ-Gla[Cys-Gly-OCyP]-OcyP [Compound X] | 27 | 0 | 
13 | γ-Glt-Cys-Gly-OH [III] | 55 | 2 | 
